The source of these data is PubChem BioAssay AID1259407 (Chemical Carcinogenesis Research Information System (CCRIS), 2018).

The subject of this data set is CCRIS mutagenicity, Ames/micronucleus/aberration tests. Briefly: CCRIS mutagenicity studies.
[1] abbreviates: Test System: AMES SALMONELLA TYPHIMURIUM, Strain/Indicator: TA98, Metabolic Activation: RAT, LIVER, S-9, AROCLOR 1254, Method: PREINCUBATION
Setting [2] is: Test System: AMES SALMONELLA TYPHIMURIUM, Strain/Indicator: TA98, Metabolic Activation: NONE, Method: STANDARD PLATE.
Setting [3] is: Test System: AMES SALMONELLA TYPHIMURIUM, Strain/Indicator: TA100, Metabolic Activation: NONE, Method: STANDARD PLATE.

Molecules are shown by their SMILES. Calls of active or inactive are those of the source. The rule behind the calls is not given here.

On to `Nc1c(Br)cc(Br)c2c1C(=O)c1ccccc1C2=O`, for which the mutagenic call reads like this: (End Point: IN VITRO CHROMOSOMAL ABERRATIONS, Test System: CHO-LB CELLS, Metabolic Activation: NONE) “inactive; negative”; (End Point: IN VITRO CHROMOSOMAL ABERRATIONS, Test System: CHO-LB CELLS, Metabolic Activation: RAT, LIVER, S-9, AROCLOR 1254) “inactive; negative”; (Test System: AMES SALMONELLA TYPHIMURIUM, Strain/Indicator: TA98, Metabolic Activation: HAMSTER, LIVER, S-9, AROCLOR 1254 (10%), Method: PREINCUBATION) “inactive; negative”; (Test System: AMES SALMONELLA TYPHIMURIUM, Strain/Indicator: TA98, Metabolic Activation: HAMSTER, LIVER, S-9, AROCLOR 1254, Method: PREINCUBATION) “inactive; negative”; (Test System: AMES SALMONELLA TYPHIMURIUM, Strain/Indicator: TA98, Metabolic Activation: NONE, Method: PREINCUBATION) “active; positive”; (Test System: AMES SALMONELLA TYPHIMURIUM, Strain/Indicator: TA98, Metabolic Activation: RAT, LIVER, S-9, AROCLOR 1254 (10%), Method: PREINCUBATION) “inactive; negative”. Also, the mutagenic call runs as follows: under setting [1], “inactive; negative”; (Test System: AMES SALMONELLA TYPHIMURIUM, Strain/Indicator: TA100, Metabolic Activation: HAMSTER, LIVER, S-9, AROCLOR 1254, Method: PREINCUBATION) “inactive; negative”; (Test System: AMES SALMONELLA TYPHIMURIUM, Strain/Indicator: TA100, Metabolic Activation: NONE, Method: PREINCUBATION) “inactive; negative”; (Test System: AMES SALMONELLA TYPHIMURIUM, Strain/Indicator: TA100, Metabolic Activation: RAT, LIVER, S-9, AROCLOR 1254, Method: PREINCUBATION) “inactive; negative”; (Test System: AMES SALMONELLA TYPHIMURIUM, Strain/Indicator: TA1535, Metabolic Activation: HAMSTER, LIVER, S-9, AROCLOR 1254 (10%), Method: PREINCUBATION) “inactive; negative”; (Test System: AMES SALMONELLA TYPHIMURIUM, Strain/Indicator: TA1535, Metabolic Activation: HAMSTER, LIVER, S-9, AROCLOR 1254, Method: PREINCUBATION) “inactive; negative”. For the same molecule, the mutagenic call was “inactive; negative” (Test System: AMES SALMONELLA TYPHIMURIUM, Strain/Indicator: TA1535, Metabolic Activation: NONE, Method: PREINCUBATION); “inactive; negative” (Test System: AMES SALMONELLA TYPHIMURIUM, Strain/Indicator: TA1535, Metabolic Activation: RAT, LIVER, S-9, AROCLOR 1254 (10%), Method: PREINCUBATION); “inactive; negative” (Test System: AMES SALMONELLA TYPHIMURIUM, Strain/Indicator: TA1535, Metabolic Activation: RAT, LIVER, S-9, AROCLOR 1254, Method: PREINCUBATION); “inactive; negative” (Test System: AMES SALMONELLA TYPHIMURIUM, Strain/Indicator: TA1537, Metabolic Activation: HAMSTER, LIVER, S-9, AROCLOR 1254, Method: PREINCUBATION); “active; positive” (Test System: AMES SALMONELLA TYPHIMURIUM, Strain/Indicator: TA1537, Metabolic Activation: NONE, Method: PREINCUBATION); “active; positive” (Test System: AMES SALMONELLA TYPHIMURIUM, Strain/Indicator: TA1537, Metabolic Activation: RAT, LIVER, S-9, AROCLOR 1254, Method: PREINCUBATION).
With `Cc1cnc2c(ccc3c2nc(N)n3C)n1`, the mutagenic call under setting [1] is “active; positive” and the mutagenic call (Test System: AMES SALMONELLA TYPHIMURIUM, Strain/Indicator: TA98, Metabolic Activation: RAT, LIVER, S-9, AROCLOR 1254, Method: STANDARD PLATE) is “active; positive”.
For `O[C@@H]1[C@H]2O[C@H]2c2c(ccc3ccc4ccccc4c23)[C@H]1O`, the mutagenic call is “active; positive” (Test System: E. COLI, Strain/Indicator: CL101P, Metabolic Activation: NONE, Method: PREINCUBATION); “active; positive” (Test System: E. COLI, Strain/Indicator: CL102P, Metabolic Activation: NONE, Method: PREINCUBATION); “active; positive” (Test System: E. COLI, Strain/Indicator: CL103P, Metabolic Activation: NONE, Method: PREINCUBATION); “active; positive” (Test System: E. COLI, Strain/Indicator: CL104P, Metabolic Activation: NONE, Method: PREINCUBATION); “active; positive” (Test System: E. COLI, Strain/Indicator: CL105P, Metabolic Activation: NONE, Method: PREINCUBATION); “active; positive” (Test System: E. COLI, Strain/Indicator: CL106P, Metabolic Activation: NONE, Method: PREINCUBATION).
On to `N=C(N)c1cc2ccc(Br)cc2[nH]1`, for which the mutagenic call by setting is: under setting [2], “inactive; negative”; (Test System: AMES SALMONELLA TYPHIMURIUM, Strain/Indicator: TA98, Metabolic Activation: RAT, LIVER, S-9, PHENOBARBITAL, Method: STANDARD PLATE) “inactive; negative”; under setting [3], “inactive; negative”; (Test System: AMES SALMONELLA TYPHIMURIUM, Strain/Indicator: TA100, Metabolic Activation: RAT, LIVER, S-9, PHENOBARBITAL, Method: STANDARD PLATE) “inactive; negative”.
In the case of `O=[N+]([O-])c1cc(Cl)cc(Sc2cc(Cl)cc([N+](=O)[O-])c2O)c1O`, the mutagenic call was “inactive; negative” under setting [2]; “inactive; negative” (Test System: AMES SALMONELLA TYPHIMURIUM, Strain/Indicator: TA98, Metabolic Activation: RAT, LIVER, S-9, KANECHLOR 400, Method: STANDARD PLATE); “inactive; negative” under setting [3]; “inactive; negative” (Test System: AMES SALMONELLA TYPHIMURIUM, Strain/Indicator: TA100, Metabolic Activation: RAT, LIVER, S-9, KANECHLOR 400, Method: STANDARD PLATE); “inactive; negative” (Test System: AMES SALMONELLA TYPHIMURIUM, Strain/Indicator: TA1535, Metabolic Activation: NONE, Method: STANDARD PLATE); “inactive; negative” (Test System: AMES SALMONELLA TYPHIMURIUM, Strain/Indicator: TA1535, Metabolic Activation: RAT, LIVER, S-9, KANECHLOR 400, Method: STANDARD PLATE). Also, the mutagenic call by setting is: (Test System: AMES SALMONELLA TYPHIMURIUM, Strain/Indicator: TA1537, Metabolic Activation: NONE, Method: STANDARD PLATE) “inactive; negative”; (Test System: AMES SALMONELLA TYPHIMURIUM, Strain/Indicator: TA1537, Metabolic Activation: RAT, LIVER, S-9, KANECHLOR 400, Method: STANDARD PLATE) “inactive; negative”; (Test System: AMES SALMONELLA TYPHIMURIUM, Strain/Indicator: TA1538, Metabolic Activation: NONE, Method: STANDARD PLATE) “inactive; negative”; (Test System: AMES SALMONELLA TYPHIMURIUM, Strain/Indicator: TA1538, Metabolic Activation: RAT, LIVER, S-9, KANECHLOR 400, Method: STANDARD PLATE) “inactive; negative”.
For the molecule `CN(CCCC(=O)O)N=O`, the mutagenic call (Test System: AMES SALMONELLA TYPHIMURIUM, Strain/Indicator: TA1535, Metabolic Activation: RAT, LIVER, S-9, KC500 OR PHENOBARBITAL, Method: LIQUID SUSPENSION) was “active; positive”.
As to `C=C(C)C(=O)OCCOC1C=CC2C3CCC(C3)C12` (stereo not drawn), the mutagenic call is “inactive; negative” (Test System: CHINESE HAMSTER OVARY, Strain/Indicator: CHO-K1-BH4 (HGPRT), Metabolic Activation: NONE, Method: MONOLAYER) and “active; positive” (Test System: CHINESE HAMSTER OVARY, Strain/Indicator: CHO-K1-BH4 (HGPRT), Metabolic Activation: NONE, Method: SUSPENSION/PLATE).
